Literature values, collected in patent US8273685B2, “Agrochemical composition” (Nippon Soda Co., Ltd., priority 2006, dated 2012).

Details: 1-octanol/water

SMILES	Log P
Cc1c(F)c(F)c(COC(=O)[C@@H]2[C@H](/C=C(\Cl)C(F)(F)F)C2(C)C)c(F)c1F (racemic) [Tefluthrin, 2,3,5,6-tetrafluoro-4-methylbenzyl (1RS,3RS)-3-[(Z)-2-chloro-3,3,3-trifluoroprop-1-enyl]-2,2-dimethylcyclopropanecarboxylat]	6.5
O=C(NC(=O)c1c(F)cccc1F)Nc1ccc(Cl)c(Oc2ncc(C(F)(F)F)cc2Cl)c1 [Fluazuron, 1-[4-chloro-3-(3-chloro-5-trifluoromethyl-2-pyridyloxy)phenyl]-3-(2,6-difluorobenzoyl)urea]	5.1
CCN(Cc1c(F)cccc1Cl)c1c([N+](=O)[O-])cc(C(F)(F)F)cc1[N+](=O)[O-] [Flumetralin, N-(2-chloro-6-fluorobenzyl)-N-ethyl-alpha,alpha,alpha-trifluoro-2,6-dinitro-p-toluidine]	> 3
O=C(NC(=O)c1c(F)cccc1F)Nc1cc(Cl)c(OC(F)(F)C(F)F)c(Cl)c1 [Hexaflumuron, 1-[3,5-dichloro-4-(1,1,2,2-tetrafluoroethoxy)phenyl]-3-(2,6-difluorobenzoyl)urea]	4.68
COC(=O)c1c(C(F)F)nc(C(F)(F)F)c(C2=NCCS2)c1CC(C)C [Thiazopyr, methyl 2-difluoromethyl-5-(4,5-dihydro-1,3-triazol-2-yl)-4-isobutyl-6-trifluoromethylnicotinate]	3.89
